Data taken from patent US7592366B2, “Therapeutic compounds” (Allergan, Inc., priority 2006, dated 2009).

Columns and labels:
EP2 = EP2 (Homo sapiens, UniProt P43116); experiment: Competition binding [3H]PGE2, EP2 Ki; design: expressed in transfected cells; host or cells: HEK 293; settings: [3H]PGE2 competition, HEK 293 cells expressing human EP2
Method: Competition binding experiments were performed in a medium containing Hank's balanced salt solution, Hepes 20 mM, pH 7.3, membranes (˜60 μg protein) or 2×10^5 cells from HEK 293 cells stably expressing human EP2 receptors, [^3H]PGE2 (10 nM) and various concentrations of test compounds in a total volume of 300 μl. Reaction mixtures were incubated at 23° C. for 60 min, and were filtered over Whatman GF/B filters under vacuum. Filters were washed three times with 5 ml ice-cold buffer containing 50 mM Tris/HCl (pH 7.3). Non-specific binding was estimated in the presence of excess unlabeled PGE2 (10 μM). Binding data fitted to the binding model for a single class of binding sites, using nonlinear regression analysis. IC50 values thus obtained were converted to Ki using the equation of Ki=(IC50/(1+[L]/KD) where [L] represents PGE2 concentration (10 nM) and KD the dissociation constant for [^3H]PGE2 at human EP2 receptors (40 nM).
HEK-293 cells stably expressing the human or feline FP receptor, or EP1, EP2, or EP4 receptors were washed with TME buffer, scraped from the bottom of the flasks, and homogenized for 30 sec using a Brinkman PT 10/35 polytron. TME buffer was added to achieve a final 40 ml volume in the centrifuge tubes (the composition of TME is 100 mM TRIS base, 20 mM MgCl2, […]; 10N HCl is added to achieve a pH of 7.4).
The cell homogenate was centrifuged at 19000 r.p.m. for 20 min at 4° C. using a Beckman Ti-60 rotor. The resultant pellet was resuspended in TME buffer to give a final 1 mg/ml protein concentration, as determined by Biorad assay. Radioligand binding competition assays vs. [^3H-]17-phenyl PGF2α (5 nM) were performed in a 100 μl volume for 60 min. Binding reactions were started by adding plasma membrane fraction. The reaction was terminated by the addition of 4 ml ice-cold TRIS-HCl buffer and rapid filtration through glass fiber GF/B filters using a Brandel cell harvester. The filters were washed 3 times with ice-cold buffer and oven dried for one hour.
[^3H-] PGE2 (specific activity 180 Ci mmol) was used as the radioligand for EP receptors. [^3H] 17-phenyl PGF2α was employed for FP receptor binding studies. Binding studies employing EP1, EP2, EP4 and FP receptors were performed in duplicate in at least three separate experiments. A 200 μl assay volume was used. Incubations were for 60 min at 25° C. and were terminated by the addition of 4 ml of ice-cold 50 mM TRIS-HCl, followed by rapid filtration through Whatman GF/B filters and three additional 4 ml washes in a cell harvester (Brandel). Competition studies were performed using a final concentration of 5 nM [^3H]-PGE2, or 5 nM [^3H] 17-phenyl PGF2α and non-specific binding determined with 10^−5M of unlabeled PGE2, or 17-phenyl PGF2α, according to receptor subtype studied.

hDP/Gqs5 = molecular target: T1, hDP/Gqs5 (Homo sapiens, UniProt Q13258); experiment: FLIPR calcium signal, hDP; format: cell-based; settings: read-out: Other Receptors (EC50 in nM) hDP
T1 construct: expressed in transfected cells; host or cells: HEK-293(EBNA)
T1 sequence (Q13258 1-359): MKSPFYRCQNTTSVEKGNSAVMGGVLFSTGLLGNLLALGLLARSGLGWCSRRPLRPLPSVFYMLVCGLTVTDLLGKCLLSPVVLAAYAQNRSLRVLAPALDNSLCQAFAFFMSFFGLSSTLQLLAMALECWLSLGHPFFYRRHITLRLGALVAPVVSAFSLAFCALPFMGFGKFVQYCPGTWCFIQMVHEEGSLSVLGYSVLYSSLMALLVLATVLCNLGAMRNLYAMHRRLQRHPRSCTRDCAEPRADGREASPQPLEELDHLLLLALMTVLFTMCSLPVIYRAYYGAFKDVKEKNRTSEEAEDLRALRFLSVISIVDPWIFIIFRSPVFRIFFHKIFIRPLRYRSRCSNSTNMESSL
Method: (§1) HEK-293(EBNA) cells, stably expressing one type or subtype of recombinant human prostaglandin receptors (prostaglandin receptors expressed: hDP/Gqs5; hEP1; hEP2/Gqs5; hEP3A/Gqi5; hEP4/Gqs5; hFP; hIP; hTP), were cultured in 100 mm culture dishes in high-glucose DMEM medium containing 10% fetal bovine serum, 2 mM l-glutamine, 250 μg/ml geneticin (G418) and 200 μg/ml hygromycin B as selection markers, and 100 units/ml penicillin G, 100 μg/ml streptomycin and 0.25 μg/ml amphotericin B.
(§2) Cells were seeded at a density of 5×10^4 cells per well in Biocoat® Poly-D-lysine-coated black-wall, clear-bottom 96-well plates (Becton-Dickinson) and allowed to attach overnight in an incubator at 37° C. Cells were then washed two times with HBSS-HEPES buffer (Hanks Balanced Salt Solution without bicarbonate and phenol red, 20 mM HEPES, pH 7.4) using a Denley Cellwash plate washer (Labsystems). After 45 minutes of dye-loading in the dark, using the calcium-sensitive dye Fluo-4 […] at a final concentration of 2 μM, plates were washed four times with HBSS-HEPES buffer to remove excess dye leaving 100 μl in each well. Plates were re-equilibrated to 37° C. for a few minutes.
(§3) Cells were excited with an Argon laser at 488 nm, and emission was measured through a 510-570 nm bandwidth emission filter (FLIPR™, Molecular Devices, Sunnyvale, Calif.). Drug solution was added in a 50 μl volume to each well to give the desired final concentration. The peak increase in fluorescence intensity was recorded for each well. On each plate, four wells each served as negative (HBSS-HEPES buffer) and positive controls (standard agonists: BW245C (hDP); PGE2 (hEP1; hEP2/Gqs5; hEP3A/Gqi5; hEP4/Gqs5); PGF2α (hFP); carbacyclin (hIP); U-46619 (hTP), depending on receptor). The peak fluorescence change in each drug-containing well was then expressed relative to the controls.
(§4) Compounds were tested in a high-throughput (HTS) or concentration-response (CoRe) format. In the HTS format, forty-four compounds per plate were examined in duplicates at a concentration of 10^−5 M. To generate concentration-response curves, four compounds per plate were tested in duplicates in a concentration range between 10^−5 and 10^−11 M. The duplicate values were averaged. In either, HTS or CoRe format each compound was tested on at least 3 separate plates using cells from different passages to give an n≧3.

hEP2/Gqs5 = molecular target: T2, hEP2/Gqs5 (Homo sapiens, UniProt P43116); experiment: FLIPR calcium signal, EP2; format: cell-based; settings: HEK-293(EBNA) cells
T2 construct: expressed in transfected cells; host or cells: HEK-293(EBNA)
Method: as §1, §2, §3, §4

T2 sequence (P43116 whole entry): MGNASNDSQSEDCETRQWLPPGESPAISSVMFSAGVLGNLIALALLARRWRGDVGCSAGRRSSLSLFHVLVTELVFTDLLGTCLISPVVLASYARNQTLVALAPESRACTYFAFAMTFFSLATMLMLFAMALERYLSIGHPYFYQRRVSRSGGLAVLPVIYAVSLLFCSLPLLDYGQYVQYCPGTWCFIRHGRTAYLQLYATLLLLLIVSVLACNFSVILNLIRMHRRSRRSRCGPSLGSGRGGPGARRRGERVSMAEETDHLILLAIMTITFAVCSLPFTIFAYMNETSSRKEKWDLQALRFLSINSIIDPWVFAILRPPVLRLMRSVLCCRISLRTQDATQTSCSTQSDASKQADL
Sequence of EP2 (P43116 whole entry): as above

Row | SMILES | Ki (EP2) [nM] | EC50 (hDP/Gqs5) [nM] | EC50 (hEP2/Gqs5) [nM]
1 | O=C(O)c1ccc(CCC[C@@H]2[C@@H](CCc3cc(Cl)cc(Cl)c3)[C@@H](O)C[C@H]2Cl)s1 [compound 17, 5-(3-((1R,2R,3S,5R)-5-chloro-2-(3,5-dichlorophenethyl)-3-hydroxycyclopenty)propyl)thiophene-2-carboxylic acid] | 22 | > 10000 | 501
2 | O=C(O)c1ccc(CCC[C@@H]2[C@@H](CCc3cc(F)cc(F)c3)[C@H](O)C[C@H]2Cl)s1 [11d, 5-(3-((1R,2R,3R,5R)-5-chloro-2-(3,5-difluorophenethyl)-3-hydroxycyclopentyl)propyl)thiophene-2-carboxylic acid] | 2 | 12700 | 10
